In patent US11395821B2, “Treatment of EGFR-driven cancer with fewer side effects” (G1 Therapeutics, Inc., priority 2017, dated 2022):
“Also recorded” adds a separate entry of the source.

Experiments:
[1] = test system: H1975 (EGFR^L858R/T790M NSCLC Model); experiment: Example 1: Compound IV + afatinib in H1975 tumor bearing mice; type: in vivo; conditions: Compound IV 50 or 100 mg/kg in combination with afatinib 20 mg/kg, daily, 18 days
Procedure: (§1) The x-axis is days of treatment measured in time and the y-axis is tumor volume measured in mm^3.
(§2) Compound IV in combination with the EGFR-TKI afatinib was tested in an EGFR^L858R/T790M NSCLC model. The combination of Compound IV in dosages of 50 mg/kg and 100 mg/kg+afatinib was tested and compared to treatment regimens consisting of only Compound IV (in 50 mg/kg dose or a 100 mg/kg) or afatinib (20 mg/kg). H1975 (EGFR^L858R/T790M NSCLC Model) tumor bearing mice were treated daily. Tumors were measured twice a week until vehicle treated mice tumors reached about 1000 mm^3 (18 days). Data is plotted to compare tumor growth in each cohort during the 18 days of treatment.

[2] = test system: H1975 (EGFR^L858R/T790M NSCLC Model); experiment: Example 2: Compound IV + erlotinib in H1975 tumor bearing mice; type: in vivo; conditions: Compound IV 50 or 100 mg/kg in combination with erlotinib 70 mg/kg, daily, 18 days
Procedure: as §1
as §2, with “erlotinib” for “afatinib”, “mg/kg+erlotinib” for “mg/kg+afatinib”, “erlotinib (70” for “afatinib (20”

[3] = test system: H1975 (EGFR^L858R/T790M NSCLC Model); experiment: Example 3: Compound IV added to afatinib after resistance in H1975 tumor bearing mice; type: in vivo
Procedure: EGFRL858R/T790M NSCLC model (H1975) tumor bearing mice were treated with daily oral doses of vehicle or afatinib (20 mg/kg). Once tumors became resistant to afatinib (˜D18), Compound IV (100 mg/kg) was added to the treatment regimen. Tumors were measured […]. Data is plotted to compare tumor growth in each cohort during the treatment. The x-axis is days of treatment measured in time and the y-axis is tumor volume measured in mm^3.
Compound IV in combination with the EGFR-TKI afatinib was tested in an EGFR^L858R/T790M NSCLC model to determine the ability of the combination to reverse afatinib resistance. H1975 (EGFR^L858R/T790M NSCLC Model) tumor bearing mice were treated daily with 20 mg/kg of afatinib. Once tumors became resistant to afatinib (about D18), Compound IV (100 mg/kg) was added to the treatment regimen. Tumors were measured twice a week for 40 days. Data is plotted to compare tumor growth in each cohort during treatment.

[4] = test system: EGFR^ex19del/T790M PDX NSCLC tumor fragments (TM00219, Jackson Labs); experiment: Example 4: Compound IV +/- osimertinib in EGFR ex19del/T790M PDX model; type: in vivo, NSG mice; conditions: once daily oral gavage 28 days
Source text: (§3) The x-axis is days from initiation measured in time and the y-axis is mean tumor volume measured in mm^3.
The x-axis is days from initiation measured in time and the y-axis is median tumor volume measured in mm^3.
After 28 days tumors continued to be measured until they reached tumor burden (>2000 mm^3).

[5] = test system: EGFR^ex20ins PDX NSCLC tumor fragments (LU0387, CrownBio); experiment: Example 5: Compound IV +/- osimertinib in EGFR ex20ins PDX model; type: in vivo, BALB/c nude mice; conditions: once daily oral gavage
Source text: as §3
Tumors continued to be measured until they reached tumor burden (>3000 mm3).

## CC(C)N1CCN(c2ccc(Nc3ncc4cc5n(c4n3)C3(CCCCC3)CNC5=O)nc2)CC1 [Compound IV]
[1]
  afatinib efficacy and time to resistance (tumor volume): increased the afatinib efficacy and extended the time to resistance; also recorded: increases EGFR-TKI efficacy and extends time to resistance
  decrease of tumor volume, combination vs Compound IV alone and afatinib alone: more effective at decreasing tumor volume
[2]
  erlotinib resistance (tumor volume): reversed erlotinib resistance; also recorded: reverses EGFR-TKI acquired resistance
[3]; afatinib 20 mg/kg daily, Compound IV 100 mg/kg added at about D18, 40 days
  acquired resistance to afatinib (tumor volume): reverses acquired resistance to afatinib
[3]; as worded in Example 3
  decrease of tumor volume, combination vs Compound IV alone and afatinib alone: more effective at decreasing tumor volume
[3]; as worded in Example 3: Compound IV 50 or 100 mg/kg in combination with afatinib
  afatinib efficacy and time to resistance (tumor volume): increased the afatinib efficacy and extended the time to resistance
[4]; Compound IV 100 mg/kg + osimertinib 2.5 mg/kg
  tumor growth vs vehicle, combination: tumor stasis during dosing that was sustained post treatment; also recorded: delays tumor growth
[4]; Compound IV 100 mg/kg or osimertinib 2.5 mg/kg alone
  tumor growth vs vehicle, single agent: modest tumor growth inhibition
[5]; Compound IV 100 mg/kg + osimertinib 10 mg/kg
  tumor growth vs vehicle, combination: significant tumor growth delay; also recorded: delays tumor growth
[5]; 17 days, Compound IV 100 mg/kg or osimertinib 10 mg/kg alone
  tumor growth vs vehicle, single agent: did not cause an effect
